# Biological target: Retrograde regulation protein 3 (Saccharomyces cerevisiae (strain ATCC 204508 / S288c)) (UniProt P38165)
# Test: Rtg3-GFP nuclear translocation in yeast, SAR follow-up, yeast TOR pathway modulator project, imaging, fluorescence microscopy, S288c (AID 504471)
# Conditions: S. cerevisiae Rtg3-GFP, nuclear translocation by microscopy; at 30 µM; active compounds read high
row,"nuclear translocation (1=yes, 0=no)",SMILES
1,1,CNc1nc(N)c([N+](=O)[O-])c(Nc2ccccc2)n1
2,1,CO[C@H]1C[C@@H]2CC[C@@H](C)[C@@](O)(O2)C(=O)C(=O)N2CCCC[C@H]2C(=O)O[C@H]([C@H](C)C[C@@H]2CC[C@@H](O)[C@H](OC)C2)CC(=O)[C@H](C)/C=C(\C)[C@@H](O)[C@@H](OC)C(=O)[C@H](C)C[C@H](C)/C=C/C=C/C=C/1C
3,1,CNc1nc(N)c([N+](=O)[O-])c(Nc2cccc(F)c2)n1
4,1,CNc1nc(N)c([N+](=O)[O-])c(Nc2cccc(Cl)c2)n1
